From patent publication EP4574819A1, “DIAZINONE COMPOUNDS FOR THE CONTROL OF INVERTEBRATE PESTS” (priority 2023, dated 2025)

Experiments:
Format in all cases: in vivo
[1] = system: Boll weevil (Anthonomus grandis); assay: Boll weevil (Anthonomus grandis) egg/larval mortality on sprayed insect diet in 96-well microtiter plates; conditions: 2500 ppm; egg and larval mortality after 5 days; in comparison with untreated controls
Description: B.2 Boll weevil (Anthonomus grandis)
For evaluating control of boll weevil (Anthonomus grandis) the test unit consists of 96-well-microtiter plates containing an insect diet and 5-10 A. grandis eggs.
The compounds are formulated using a solution containing 75% v/v water and 25% v/v DMSO. Different concentrations of formulated compounds are sprayed onto the insect diet at 5µl, using a custom-built micro atomizer, at two replications.
After application, microtiter plates are incubated at about 25 ± 1°C and about 75 ± 5 % relative humidity for 5 days. Egg and larval mortality is then visually assessed.

[2] = system: Green peach aphid (Myzus persicae); assay: Green peach aphid (Myzus persicae) systemic test, artificial diet under artificial membrane; conditions: adult aphids, 3 days, in comparison with untreated controls
Excerpt: B.5 Green peach aphid (Myzus persicae)
For evaluating control of green peach aphid (Myzus persicae) through systemic means, the test unit consisted of 96-well-microtiter plates containing liquid artificial diet under an artificial membrane.
The compounds were formulated using a solution containing 75% v/v water and 25% v/v DMSO. Different concentrations of formulated compounds were pipetted into the aphid diet, using a custom built pipetter, at two replications.
After application, 5 - 8 adult aphids were placed on the artificial membrane inside the microtiter plate wells. The aphids were then allowed to suck on the treated aphid diet and incubated at about 23 ± 1°C and about 50 ± 5 % relative humidity for 3 days. Aphid mortality and fecundity was then visually assessed.

[3] = system: Diamond back moth (Plutella xylostella); assay: Diamond back moth (Plutella xylostella) cabbage leaf dip test; conditions: 3rd instar larvae, 72 hours after treatment, in comparison with untreated controls
Description: B.3 Diamond back moth (Plutella xylostella)
The active compound was dissolved at the desired concentration in a mixture of 1:1 (vol:vol) distilled water: acetone. Surfactant (Kinetic HV) was added at a rate of 0.01% (vol/vol). The test solution was prepared on the day of use.
Leaves of cabbage were dipped in test solution and air-dried. Treated leaves were placed in petri dishes lined with moist filter paper and inoculated with ten 3rd instar larvae. Mortality was recorded 72 hours after treatment. Feeding damages were also recorded using a scale of 0-100%.

[4] = system: Yellow fever mosquito (Aedes aegypti); assay: whole plant or invertebrate; conditions: larval mortality after 2 days, in comparison with untreated controls
Description: B.4 Yellow fever mosquito (Aedes aegypti)
For evaluating control of yellow fever mosquito (Aedes aegypti) the test unit consists of 96-well-microtiter plates containing 200µl of tap water per well and 5-15 freshly hatched A. aegypti larvae.
The active compounds are formulated using a solution containing 75% (v/v) water and 25% (v/v) DMSO. Different concentrations of formulated compounds or mixtures are sprayed onto the insect diet at 2.5µl, using a custom-built micro atomizer, at two replications.
After application, microtiter plates are incubated at 28±1°C, 80±5 % RH for 2 days. Larval mortality is then visually assessed.

[5] = system: Tobacco budworm (Heliothis virescens); assay: Tobacco budworm (Heliothis virescens) egg/larval mortality on sprayed insect diet in 96-well microtiter plates; conditions: 120 h, egg and larval mortality after 5 days, in comparison with untreated controls
Description: B.1 Tobacco budworm (Heliothis virescens)
For evaluating control of tobacco budworm (Heliothis virescens) the test unit consists of 96-well-microtiter plates containing an insect diet and 15-25 H. virescens eggs.
The compounds are formulated using a solution containing 75% v/v water and 25% v/v DMSO. Different concentrations of formulated compounds are sprayed onto the insect diet at 10µl, using a custom-built micro atomizer, at two replications.
After application, microtiter plates are incubated at about 28 ± 1°C and about 80 ± 5 % relative humidity for 5 days. Egg and larval mortality is then visually assessed.

SMILES | mortality [1] | mortality ([2]; 2500 ppm) | mortality ([3]; 2500 ppm) | mortality ([4]; 2500 ppm) | mortality at 2500 ppm [5] | mortality at 2500 ppm ([2]; Myzus persicae, 72 h) | mortality at 2500 ppm ([3]; Plutella xylostella, foliar) | mortality at 2500 ppm ([4]; Aedes aegypti, 48 h)
CC(NC(=O)c1cc(C(F)(F)F)cc(C(F)(F)F)c1)c1nccnc1C1=NNC(=O)CN1C (centres unmarked) [Compound I-1, N-(1-(3-(4-Methyl-6-oxo-1,4,5,6-tetrahydro-1,2,4-triazin-3-yl)pyrazin-2-yl)ethyl)-3,5-bis(trifluoromethyl)benzamide] | at least 75% | at least 75% | at least 75% | at least 75% |  |  |  | 
CC(NC(=O)c1cc(C(F)(F)F)cc(C(F)(F)F)c1)c1nccnc1C1=NN(C)C(=O)CO1 (centres unmarked) [Compound I-4, N-(1-(3-(4-methyl-5-oxo-5,6-dihydro-4H-1,3,4-oxadiazin-2-yl)pyrazin-2-yl)ethyl)-3,5-bis(trifluoromethyl)benzamide] |  |  |  |  | ≥ 75% | ≥ 75% | ≥ 75% | ≥ 75%
